Measured values: US11873290B2, “Pyridazinone compounds and uses thereof” (Edgewise Therapeutics, Inc., priority 2018, dated 2024)

Molecular target: skeletal myofibrils (myosin ATPase activity)
Test: Skeletal Myofibril ATPase Assay
Assay type: biochemical
Details: PK-LDH coupled, absorbance at 340 nm
Procedure: Overview: Myosin ATPase activity is assessed by using a coupled reaction system, in which ADP generated by the myosin ATPase function is coupled to the disappearance of NADH through the pyruvate kinase/lactate dehydrogenase (PK-LDH) system. Myosin ATPase activity produces ADP, which is used as a substrate for PK to produce pyruvate and regenerate ATP. The pyruvate is then used as a substrate by LDH to oxidize NADH to NAD+. The rate of the reaction is monitored through the time-dependent disappearance of NADH using absorbance at 340 nm. Inhibition of ATPase activity by the assayed compounds is indicated by a reduced rate of NADH loss, relative to vehicle-treated controls, over the experimental time window. To assess the selectivity of the assayed compounds for skeletal myofibrils, the compounds are counter-screened in cardiac myofibrils.
Materials: The following stock solutions and reagents were used in the Skeletal Myofibril ATPase Assay:
Stock Solutions of pCa buffer. Combine PIPES, CaCl2, and EGTA solutions with 70 mL of water. Adjust pH to 7.0 and bring final volume to 100 mL.
Skeletal Myofibril ATPase Assay Procedure: BSA, ATP, NADH, PEP, and DTT solutions were thawed at room temperature, then transferred to ice. Pellet-frozen myofibrils (approximately twice the required volume) were transferred into a sufficiently large tube and capped. Myofibrils were thawed by rolling in a water bath for approximately 15 min at room temperature and cooled on ice. Buffers A and B were prepared by adjusting volumes as necessary for required number of wells and stored on ice. 0.5 μL of the compounds to be assayed were added into wells of a 384-well plate. Buffers A and B were mixed by inversion immediately prior to use, then 25 μL of each was dispensed using a Multidrop dispenser (Buffer A first, then Buffer B). The absorbance within the wells was measured at 340 nm, using a kinetic protocol in which the wells are read every 1.5-2 min for 1 h. The reaction rate was qualitatively assessed by subtracting the minimum absorbance value from the maximum value for each well, using either the SoftMax Pro plate reader software or a spreadsheet program such as Excel. Using GraphPad Prism 8.0, the data was normalized, with 100% activity defined as the absorbance change in the 1% DMSO vehicle wells and 0% assigned to no change in absorbance over the course of the experiment. The normalized data were fit to a variable-slope four-parameter logistic model, constraining the bottom to be 0 or greater. Compounds of Table 1 to 4 were tested and results of the assay appear in Table 5 herein. A=IC50 is less than or equal to 10 μM; B=IC50 is greater than 10 μM and less than 100 μM; C=IC50 is greater than 100 μM; […].

IC50	SMILES
< 10 µM	COc1ccc(Cn2nc(-c3cnc(OCC(F)(F)F)nc3)ccc2=O)cn1 [Compound 132, 2-((6-methoxypyridin-3-yl)methyl)-6-(2-(2,2,2-trifluoroethoxy)pyrimidin-5-yl)pyridazine-3(2H)-one]
< 10 µM	O=c1ccc(-c2cnc(N3CCC[C@H]3C(F)(F)F)nc2)nn1Cc1cncc(F)c1 [Compound 74, (S)-2-((5-fluoropyridin-3-yl)methyl)-6-(2-(2-(trifluoromethyl)pyrrolidin-1-yl)pyrimidin-5-yl)pyridazin-3(2H)-one]
< 10 µM	COc1ncc(-c2ccc(=O)n(Cc3cncc(F)c3)n2)cn1 [Compound 69, 2-((5-fluoropyridin-3-yl)methyl)-6-(2-methoxypyrimidin-5-yl)pyridazine-3(2H)-one]
< 10 µM	COc1ccc(-c2ccc(=O)n(Cc3nc(-c4ccc(OC)cc4)no3)n2)cc1 [Compound 315, 6-(4-methoxyphenyl)-2-((3-(4-methoxyphenyl)-1,2,4-oxadiazol-5-yl)methyl)pyridazin-3(2H)-one]
10 to 100 µM	O=c1ccc(-c2ccc(OC(F)F)nc2)nn1Cc1cccnc1 [Compound 10]
> 100 µM	Cc1noc(Cn2nc(-c3cnc(OCC(F)(F)F)nc3)ccc2=O)c1C [Compound 49, 2-((3,4-dimethylisoxazol-5-yl)methyl)-6-(2-(2,2,2-trifluoroethoxy)pyrimidin-5-yl)pyridazin-3(2H)-one]
> 100 µM	O=c1ccc(-c2ccc(OC(F)F)nc2)nn1Cc1cn[nH]c1-c1ccccc1 [Compound 23, 6-(6-(difluoromethoxy)pyridin-3-yl)-2-((5-phenyl-1H-pyrazol-4-yl)methyl)pyridazin-3(2H)-one]
< 10 µM	O=c1ccc(-c2cnc(OCC(F)(F)F)nc2)nn1Cc1nnc(N2CCCCC2)s1 [Compound 95, 2-((5-(piperidin-1-yl)-1,3,4-thiadiazol-2-yl)methyl)-6-(2-(2,2,2-trifluoroethoxy)pyrimidin-5-yl)pyridazin-3(2H)-one]
< 10 µM	Cc1csc(Cn2nc(-c3ccc(OC(F)F)cc3)ccc2=O)n1 [Compound 205, 6-(4-(difluoromethoxy)phenyl)-2-((4-methylthiazol-2-yl)methyl) pyridazine-3(2H)-one]
10 to 100 µM	O=c1ccc(-c2ccc(OC(F)F)cc2)nn1Cc1nc(-c2ccccc2)co1 [Compound 237, 6-(4-(difluoromethoxy)phenyl)-2-((4-phenyloxazol-2-yl)methyl)pyridazin-3(2H)-one]
10 to 100 µM	COC(=O)c1ccc(Cn2nc(-c3ccc(SC)cc3)ccc2=O)o1 [Compound 302, methyl 5-((3-(4-(methylthio)phenyl)-6-oxopyridazin-1(6H)-yl)methyl)furan-2-carboxylate]
< 10 µM	O=c1ccc(-c2cnc(OCC3CCC3)nc2)nn1Cc1cncc(F)c1 [Compound 126, 6-(2-(cyclobutylmethoxy)pyrimidin-5-yl)-2-((5-fluoropyridin-3-yl)methyl)pyridazine-3(2H)-one]
> 100 µM	O=c1ccc(-c2ccc(OC(F)F)cc2)nn1Cc1nc2ccccc2[nH]1 [Compound 230, 2-((1H-benzo[d]imidazol-2-yl)methyl)-6-(4-(difluoromethoxy)phenyl)-pyridazin-3(2H)-one]
< 10 µM	O=c1ccc(-c2cnc(OCC(F)(F)F)nc2)nn1Cc1cc(-c2ccccc2)no1 [Compound 27, 2-((3-phenylisoxazol-5-yl)methyl)-6-(2-(2,2,2-trifluoroethoxy)pyrimidin-5-yl)pyridazin-3(2H)-one]
< 10 µM	O=c1ccc(-c2ccc(OC(F)F)cc2)nn1Cc1nc(C2CC2)no1 [Compound 208, 2((3-cyclopropyl-1,2,4-oxadiazol-5-yl)methyl)-6-(4-(difluoromethoxy)phenyl) pyridazine-3(2H)-one]
< 10 µM	O=c1ccc(-c2cnc(OCC(F)(F)F)nc2)nn1Cc1nnc(-c2cccnc2)s1 [Compound 40, 2-((5-(pyridin-3-yl)-1,3,4-thiadiazol-2-yl)methyl)-6-(2-(2,2,2-trifluoroethoxy)pyrimidin-5-yl)pyridazin-3(2H)-one]
10 to 100 µM	O=c1ccc(-c2ccc(OC(F)F)cc2)nn1Cc1cncnc1 [Compound 220, 6-(4-(difluoromethoxy)phenyl)-2-(pyrimidin-5-ylmethyl)pyridazin-3(2H)-one]

IC50	SMILES
< 10 µM	O=c1ccc(-c2cnc(OCCC(F)(F)F)nc2)nn1Cc1cncc(F)c1 [Compound 117, 2-((5-f1uoropyridin-3-yl)methyl)-6-(2-(3,3,3-trifluoropropoxy)pyrimidin-5-yl)pyridazine-3(2H)-one]
< 10 µM	[2H]C(C)(C)COc1ncc(-c2ccc(=O)n(Cc3cncc(F)c3)n2)cn1 [Compound 131, 2-((5-fluoropyridin-3-yl)methyl)-6-(2-(2-methylpropoxy-2-d)pyrimidin-5-yl)pyridazin-3(2H)-one]
< 10 µM	COCc1cc(Cn2nc(-c3cnc(OCC(F)(F)F)nc3)ccc2=O)on1 [Compound 56, 2-((3-(methoxymethyl)isoxazol-5-yl)methyl)-6-(2-(2,2,2-trifluoroethoxy)pyrimidin-5-yl)pyridazin-3(2H)-one]
10 to 100 µM	Cc1noc(Cn2nc(-c3ccc(OC(F)F)cc3)ccc2=O)n1 [Compound 216, 6-(4-(difluoromethoxy)phenyl)-2-((3-methyl-1,2,4-oxadiazol-5-yl)methyl)pyridazin-3(2H)-one]
< 10 µM	CSC(C)COc1ncc(-c2ccc(=O)n(Cc3cncc(F)c3)n2)cn1 (stereo not drawn) [Compound 123, 2((5-fluoropyridin-3-yl)methyl)-6-(2-(2-(methylthio)propoxy)pyrimidin-5-yl)pyridazine-3(2H)-one]
< 10 µM	Cc1cc(Cn2nc(-c3ccc(OC(F)F)cc3)ccc2=O)on1 [Compound 204, 6-(4-(difluoromethoxy)phenyl)-2-((3-methylisoxazol-5-yl)methyl)pyridazine-3(2H)-one]
10 to 100 µM	O=c1ccc(-c2cnc(OCC(F)(F)F)nc2)nn1Cc1ccnc(O)c1 [Compound 42, 2-((2-hydroxypyridin-4-yl)methyl)-6-(2-(2,2,2-trifluoroethoxy)pyrimidin-5-yl)pyridazin-3(2H)-one]
< 10 µM	Cc1cncc(Cn2nc(-c3cnc(OCC(F)(F)F)nc3)ccc2=O)c1 [Compound 101, 2-((5-methylpyridin-3-yl)methyl)-6-(2-(2,2,2-trifluoroethoxy)pyrimidin-5-yl)pyridazine-3(2H)-one]
< 10 µM	Cc1ccc(Cn2nc(-c3cnc(OCC(F)(F)F)nc3)ccc2=O)nn1 [Compound 41, 2-((6-methylpyridazin-3-yl)methyl)-6-(2-(2,2,2-trifluoroethoxy)pyrimidin-5-yl)pyridazin-3(2H)-one]
< 10 µM	CSCc1ncc(Cn2nc(-c3cnc(OCC(F)(F)F)nc3)ccc2=O)s1 [Compound 109, 2-((2-((methylthio)methyl)thiazol-5-yl)methyl)-6-(2-(2,2,2-trifluoroethoxy)pyrimidin-5-yl)pyridazine-3(2H)-one]
10 to 100 µM	O=c1ccc(-c2cnc(OCC(F)(F)F)nc2)nn1Cc1cc(CO)no1 [Compound 43, 2-((3-(hydroxymethyl)isoxazol-5-yl)methyl)-6-(2-(2,2,2-trifluoroethoxy)pyrimidin-5-yl)pyridazin-3(2H)-one]
< 10 µM	CC(C)c1ncc(Cn2nc(-c3cnc(OCC(F)(F)F)nc3)ccc2=O)s1 [Compound 114, 2-((2-isopropylthiazol-5-yl)methyl)-6-(2-(2,2,2-trifluoroethoxy)pyrimidin-5-yl)pyridazine-3(2H)-one]
< 10 µM	CCc1cncc(Cn2nc(-c3cnc(OCC(F)(F)F)nc3)ccc2=O)c1 [Compound 137, 2-((5-ethylpyridin-3-yl)methyl)-6-(2-(2,2,2-trifluoroethoxy)pyrimidin-5-yl)pyridazine-3(2H)-one]
> 100 µM	Cc1noc(Cn2nc(-c3ccc4c(c3)OCCCO4)ccc2=O)n1 [Compound 301, 6-(3,4-dihydro-2H-benzo[b][1,4]dioxepin-7-yl)-2-((3-methyl-1,2,4-oxadiazol-5-yl)methyl)pyridazin-3(2H)-one]
10 to 100 µM	O=c1ccc(-c2cnc(OCC(F)(F)F)nc2)nn1Cc1nnc(-c2ccc(O)nc2)s1 [Compound 45, 2-((5-(6-hydroxypyridin-3-yl)-1,3,4-thiadiazol-2-yl)methyl)-6-(2-(2,2,2-trifluoroethoxy)pyrimidi-5-yl)pyridazin-3(2H)-one]
< 10 µM	O=c1ccc(-c2ccc(OC(F)F)nc2)nn1Cc1cncc(C(F)(F)F)c1 [Compound 76, 6-(6-(difluoromethoxy)pyridin-3-yl)-2-((5-(trifluoromethyl)pyridin-3-yl)methyl)pyridazin-3(2H)-one]
